Reference: patent publication US20110269680A1 (PANACEA BIOTEC LIMITED, priority 2008, published 2011)
Where two headings read alike, the source gives them in different places. Numbered stars: 1 amine (or outer) side, 2 acyl side, 3 side chain; on linkers, the order of the positions; unused ones are H or OH. Square brackets hold non-standard residues; d marks the D form. Peptide text beside a SMILES is read from it. X1 = CO[C@H]1O[C@H](C(=O)[*:2])[C@@H](O)[C@H](O)[C@H]1N[*:1]; 2Furoyl(5-aminomethyl) = O=C(c1ccc(CN[*:1])o1)[*:2]; Aib = CC(C)(N)C(=O)O

Legend:
NEP 24.11 = biological target: T1, NEP 24.11 (Homo sapiens, UniProt P08473); experiment: NEP 24.11 resistant (degradation) assay; type: in vitro ADME; conditions: for half-life at 20 μM: buffer
T1 construct: purchased Calbiochem
Experimental: The aliquots were analyzed for the amount of undegraded peptide concentration at different time intervals using RP-HPLC by peak area integration. T1/2 of each peptide was determined from the graph plotted between peak area of undegraded peptide vs time.

DPP-IV = biological target: T2, DPP-IV (Homo sapiens, UniProt P27487); experiment: DPP-IV resistant assay; type: in vitro ADME
T2 construct: purchased Sigma-Aldrich
Experimental: 20 μM of peptides of the present invention (Sequence IDs—01, 02, 03, 04, 05, 06, 11, 12 and 13) were incubated with 60 mU/2 ml of DPP-IV (Sigma-Aldrich) enzyme at room temperature (22-24° C.) in 20 mM Tris HCl buffer, pH 8.0. The aliquots were analyzed for the amount of undegraded peptide concentration at different time intervals by RP-HPLC. The peak area integration was used to determine the amount of undegraded peptide (U.S. Pat. No. 7,067,488). T1/2 of each peptide was determined from the graph plotted between peak area of undegraded peptide vs. time. The peak area of DPP-IV untreated peptide in above mentioned buffer condition of same concentration was considered as time zero. […]

GLP-1R = biological target: T3, GLP-1R (Homo sapiens, UniProt P43220); experiment: In vitro receptor functional assay (cAMP) in CHO/GLP-1R cells; type: cell-based; conditions: intracellular cAMP, 30 min with 1 mM IBMX
T3 construct: expressed in transfected cells; host or cells: CHO/GLP-1R cells
From the text: cAMP is a ubiquitous cellular second messenger that is critical component of a signal transduction pathway linking membrane receptors and their ligands to the activation of internal cellular enzymatic activity and gene expression. cAMP is synthesized from ATP by membrane bound adenylate cyclase in a very regulated manner. In its simpler form, binding of a ligand, such as hormone or drug, to its specific G protein coupled receptor can either stimulate or inhibit adenylate cyclase depending on the GPCR being activated. […] Therefore the relative concentration of cAMP serves as a means to monitor the activity of GPCRs at the cell surface.
CHO/GLP-1R Cell Culture—CHO/GLP-1R Cells were maintained in Ham's F-12 medium containing 10% Fetal bovine serum and 1% penicillin-streptomycin antibiotic solution at 37° C. in a 5% CO2 incubator.
Cells were washed twice with PBS (pH-7.2) and incubated with 100 μl Ham's F-12 serum free medium supplemented with 0.1% BSA for 2 hr at 37° C. in 5% CO2 incubator. Cells were then incubated in 100 μl Ham's F-12 serum free medium supplemented with 0.1% BSA with 1 mM IBMX in the presence as well as absence of the peptides as per present invention in different concentration (10 nM, 1 nM, 100 pM & 10 pM). The reaction was stopped 30 min later by washing the intact cells three times with ice cold PBS (pH-7.2). The intracellular cAMP was extracted by incubating the cells in 100 μl 0.1N HCl at room temperature for 20 minutes. Mixture was dissociated by pipetting up and down until the suspension became homogenous, transferred to centrifuge tube and centrifuged at 800 rpm for 10 minutes.
Dissolved 5 pNPP tablets in 25 ml DEA buffer. Wells were emptied and washed five times with wash buffer and added 200 μl pNPP solution to each well, plate was covered and allowed to develop in dark for 90 minutes.

T2 sequence (P27487 whole entry, species assumed): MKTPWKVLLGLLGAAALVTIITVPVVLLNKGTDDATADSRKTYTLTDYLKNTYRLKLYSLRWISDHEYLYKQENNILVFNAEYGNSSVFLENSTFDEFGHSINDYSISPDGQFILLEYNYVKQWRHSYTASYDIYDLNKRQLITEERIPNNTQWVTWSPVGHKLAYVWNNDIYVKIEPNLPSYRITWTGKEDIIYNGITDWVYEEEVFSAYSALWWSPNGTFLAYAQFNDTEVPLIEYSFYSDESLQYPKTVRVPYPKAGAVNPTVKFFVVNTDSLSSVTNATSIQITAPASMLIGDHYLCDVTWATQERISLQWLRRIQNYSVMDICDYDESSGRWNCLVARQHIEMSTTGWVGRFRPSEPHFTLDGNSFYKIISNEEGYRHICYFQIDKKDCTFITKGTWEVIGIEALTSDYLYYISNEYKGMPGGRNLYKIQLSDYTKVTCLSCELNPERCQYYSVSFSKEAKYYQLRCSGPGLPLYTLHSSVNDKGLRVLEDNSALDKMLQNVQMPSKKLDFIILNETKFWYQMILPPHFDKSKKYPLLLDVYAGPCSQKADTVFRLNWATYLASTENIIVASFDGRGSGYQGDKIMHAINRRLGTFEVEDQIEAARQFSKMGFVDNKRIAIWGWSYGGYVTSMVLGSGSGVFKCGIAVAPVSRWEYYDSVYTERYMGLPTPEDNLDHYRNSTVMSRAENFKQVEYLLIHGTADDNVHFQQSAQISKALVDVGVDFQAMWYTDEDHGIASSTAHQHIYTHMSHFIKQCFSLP
T1 sequence (P08473 whole entry): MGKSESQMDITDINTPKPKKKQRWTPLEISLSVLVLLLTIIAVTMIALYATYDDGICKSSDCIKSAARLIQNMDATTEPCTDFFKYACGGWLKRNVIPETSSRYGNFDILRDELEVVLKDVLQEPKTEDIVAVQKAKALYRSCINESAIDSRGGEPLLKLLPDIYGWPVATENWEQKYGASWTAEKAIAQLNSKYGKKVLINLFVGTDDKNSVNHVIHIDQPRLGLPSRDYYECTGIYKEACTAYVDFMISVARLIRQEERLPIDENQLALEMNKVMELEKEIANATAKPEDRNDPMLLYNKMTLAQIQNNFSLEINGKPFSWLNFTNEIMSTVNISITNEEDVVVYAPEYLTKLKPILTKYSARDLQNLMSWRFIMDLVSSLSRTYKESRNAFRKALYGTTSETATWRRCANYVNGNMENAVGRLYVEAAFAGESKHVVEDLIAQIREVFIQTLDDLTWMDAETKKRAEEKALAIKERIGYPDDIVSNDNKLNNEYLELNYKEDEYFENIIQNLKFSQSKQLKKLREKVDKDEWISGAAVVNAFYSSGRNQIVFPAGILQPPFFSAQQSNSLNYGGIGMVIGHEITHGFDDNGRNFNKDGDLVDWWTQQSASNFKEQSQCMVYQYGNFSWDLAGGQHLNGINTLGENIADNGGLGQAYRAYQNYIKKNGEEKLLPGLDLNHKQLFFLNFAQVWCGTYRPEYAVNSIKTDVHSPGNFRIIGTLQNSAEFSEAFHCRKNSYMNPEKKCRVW
T3 sequence (P43220 24-463, species assumed): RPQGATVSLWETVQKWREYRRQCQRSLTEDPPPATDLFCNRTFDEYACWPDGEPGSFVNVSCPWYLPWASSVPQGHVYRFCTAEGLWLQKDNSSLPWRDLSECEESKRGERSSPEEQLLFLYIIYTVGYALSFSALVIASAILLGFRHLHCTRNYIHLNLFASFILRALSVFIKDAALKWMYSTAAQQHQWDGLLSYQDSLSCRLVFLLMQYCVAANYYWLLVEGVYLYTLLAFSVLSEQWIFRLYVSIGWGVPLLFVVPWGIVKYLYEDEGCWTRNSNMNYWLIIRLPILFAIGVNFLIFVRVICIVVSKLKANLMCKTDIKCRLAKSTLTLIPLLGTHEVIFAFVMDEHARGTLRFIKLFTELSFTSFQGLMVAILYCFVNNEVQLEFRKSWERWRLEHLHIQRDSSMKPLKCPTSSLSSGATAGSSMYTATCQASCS

SMILES: CC[C@H](C)[C@H](NC(=O)[C@H](Cc1ccccc1)NC(=O)[C@H](CCC(=O)O)NC(=O)[C@H](CCCCN)NC(=O)[C@H](C)NC(=O)[C@H](C)NC(=O)[C@H](CCC(N)=O)NC(=O)CNC(=O)[C@H](CCC(=O)O)NC(=O)[C@H](CC(C)C)NC(=O)[C@H](Cc1ccc(O)cc1)NC(=O)[C@H](CO)NC(=O)[C@H](CO)NC(=O)[C@@H](NC(=O)[C@H](CC(=O)O)NC(=O)[C@H](CO)NC(=O)[C@@H](NC(=O)[C@H](Cc1ccccc1)NC(=O)[C@@H](NC(=O)CNC(=O)[C@H](CCC(=O)O)NC(=O)[C@H](C)NC(=O)[C@@H](N)Cc1c[nH]cn1)[C@@H](C)O)[C@@H](C)O)C(C)C)C(=O)N[C@@H](C)C(=O)N[C@@H](Cc1c[nH]c2ccccc12)C(=O)N[C@@H](CC(C)C)C(=O)N[C@H](C(=O)N[C@@H](CCCCN)C(=O)NCC(=O)N[C@@H](CCCNC(=N)N)C(N)=O)C(C)C [GLP-1(7-36) parent, GLP-1(7-36), reference compound]
- metabolised at 54 h, 20 μM (NEP 24.11; isolated enzyme neprilysin, pH 7.4, NEP 24.11, after 54 hrs, read-out: % Degradation (after 54 hrs)): 98.3%

SMILES: CC[C@H](C)[C@H](NC(=O)[C@H](Cc1ccccc1)NC(=O)[C@H](CCC(=O)O)NC(=O)[C@H](CCCCN)NC(=O)[C@H](C)NC(=O)[C@H](C)NC(=O)[C@H](CCC(N)=O)NC(=O)CNC(=O)[C@H](CCC(=O)O)NC(=O)[C@H](CC(C)C)NC(=O)[C@H](Cc1ccc(O)cc1)NC(=O)[C@H](CO)NC(=O)[C@H](CO)NC(=O)C(C)(C)NC(=O)[C@H](CC(=O)O)NC(=O)[C@H](CO)NC(=O)[C@@H](NC(=O)[C@H](Cc1ccccc1)NC(=O)[C@@H](NC(=O)CNC(=O)[C@H](CCC(=O)O)NC(=O)c1ccc(CNC(=O)[C@@H](N)Cc2c[nH]cn2)o1)[C@@H](C)O)[C@@H](C)O)C(=O)NC(C)(C)C(=O)N[C@@H](Cc1c[nH]c2ccccc12)C(=O)N[C@@H](CC(C)C)C(=O)N[C@H](C(=O)N[C@@H](CCCCN)C(=O)NCC(=O)N[C@@H](CCCNC(=N)N)C(N)=O)C(C)C [Seq ID No. 04] (H-H[2Furoyl(5-aminomethyl)]EGTFTSD[Aib]SSYLEGQAAKEFI[Aib]WLVKGR-NH2; N-terminus assumed)
- Percentage degradation in hrs (DPP-IV): 12.87%
- half-life at 20 μM (DPP-IV; pH 8): > 24 h
- half-life at 20 μM (NEP 24.11; pH 7.4): > 56 h
- metabolised at 54 h, 20 μM (NEP 24.11; isolated enzyme neprilysin, pH 7.4): 26%

SMILES: CC[C@H](C)[C@H](NC(=O)[C@H](Cc1ccccc1)NC(=O)[C@H](CCC(=O)O)NC(=O)[C@H](CCCCN)NC(=O)[C@H](C)NC(=O)[C@H](C)NC(=O)[C@H](CCC(N)=O)NC(=O)CNC(=O)[C@H](CCC(=O)O)NC(=O)[C@H](CC(C)C)NC(=O)[C@H](Cc1ccc(O)cc1)NC(=O)[C@H](CO)NC(=O)[C@H](CO)NC(=O)[C@@H](NC(=O)[C@H](CC(=O)O)NC(=O)[C@H](CO)NC(=O)[C@@H](NC(=O)[C@H](Cc1ccccc1)NC(=O)[C@@H](NC(=O)CNC(=O)[C@H]1O[C@H](OC)[C@H](NC(=O)[C@@H](N)Cc2c[nH]cn2)[C@@H](O)[C@@H]1O)[C@@H](C)O)[C@@H](C)O)C(C)C)C(=O)N[C@@H](C)C(=O)N[C@@H](Cc1c[nH]c2ccccc12)C(=O)N[C@@H](CC(C)C)C(=O)N[C@H](C(=O)N[C@@H](CCCCN)C(=O)NCC(=O)N[C@@H](CCCNC(=N)N)C(N)=O)C(C)C [Seq ID No. 07]
- EC50 (GLP-1R): 0.056 nM

SMILES: CC[C@H](C)[C@H](NC(=O)[C@H](Cc1ccccc1)NC(=O)[C@H](CCC(=O)O)NC(=O)[C@H](CCCCN)NC(=O)[C@H](C)NC(=O)[C@H](C)NC(=O)[C@H](CCC(N)=O)NC(=O)CNC(=O)[C@H](CCC(=O)O)NC(=O)[C@H](CC(C)C)NC(=O)[C@H](Cc1ccc(O)cc1)NC(=O)[C@H](CO)NC(=O)[C@H](CO)NC(=O)[C@@H](NC(=O)[C@H](CC(=O)O)NC(=O)[C@H](CO)NC(=O)[C@@H](NC(=O)[C@H](Cc1ccccc1)NC(=O)[C@@H](NC(=O)CNC(=O)c1ccc(CNC(=O)[C@@H](N)Cc2c[nH]cn2)o1)[C@@H](C)O)[C@@H](C)O)C(C)C)C(=O)N[C@@H](C)C(=O)N[C@@H](Cc1c[nH]c2ccccc12)C(=O)N[C@@H](CC(C)C)C(=O)N[C@H](C(=O)N[C@@H](CCCCN)C(=O)NCC(=O)N[C@@H](CCCNC(=N)N)C(N)=O)C(C)C [Seq ID No. 08]
- EC50 (GLP-1R): 0.601 nM

SMILES: CC[C@H](C)[C@H](NC(=O)[C@H](Cc1ccccc1)NC(=O)[C@H](CCC(=O)O)NC(=O)[C@H](CCCCN)NC(=O)[C@H](C)NC(=O)[C@H](C)NC(=O)[C@H](CCC(N)=O)NC(=O)CNC(=O)[C@H](CCC(=O)O)NC(=O)[C@H](CC(C)C)NC(=O)[C@H](Cc1ccc(O)cc1)NC(=O)[C@H](CO)NC(=O)[C@H](CO)NC(=O)C(C)(C)NC(=O)[C@H](CC(=O)O)NC(=O)[C@H](CO)NC(=O)[C@@H](NC(=O)[C@H](Cc1ccccc1)NC(=O)[C@@H](NC(=O)CNC(=O)[C@H](CCC(=O)O)NC(=O)c1ccc(CNC(=O)[C@@H](N)Cc2c[nH]cn2)o1)[C@@H](C)O)[C@@H](C)O)C(=O)NC(C)(C)C(=O)N[C@@H](Cc1c[nH]c2ccccc12)C(=O)N[C@@H](CC(C)C)C(=O)N[C@H](C(=O)N[C@@H](CCCCN)C(=O)NCC(=O)N[C@@H](CCCNC(=N)N)C(=O)NCC(N)=O)C(C)C [Seq ID No. 09] (H-H[2Furoyl(5-aminomethyl)]EGTFTSD[Aib]SSYLEGQAAKEFI[Aib]WLVKGRG-NH2)
- EC50 (GLP-1R): 1 nM

SMILES: CC[C@H](C)[C@H](NC(=O)[C@H](Cc1ccccc1)NC(=O)[C@H](CCC(=O)O)NC(=O)[C@H](CCCCN)NC(=O)[C@H](C)NC(=O)[C@H](C)NC(=O)[C@H](CCC(N)=O)NC(=O)CNC(=O)[C@H](CCC(=O)O)NC(=O)[C@H](CC(C)C)NC(=O)[C@H](Cc1ccc(O)cc1)NC(=O)[C@H](CO)NC(=O)[C@H](CO)NC(=O)[C@@H](NC(=O)[C@H](CC(=O)O)NC(=O)[C@H](CO)NC(=O)[C@@H](NC(=O)[C@H](Cc1ccccc1)NC(=O)[C@@H](NC(=O)CNC(=O)[C@H](CCC(=O)O)NC(=O)c1ccc(CNC(=O)[C@@H](N)Cc2c[nH]cn2)o1)[C@@H](C)O)[C@@H](C)O)C(C)C)C(=O)N[C@@H](C)C(=O)N[C@@H](Cc1c[nH]c2ccccc12)C(=O)N[C@@H](CC(C)C)C(=O)N[C@H](C(=O)N[C@@H](CCCCN)C(=O)NC(C)(C)C(=O)N[C@@H](CCCNC(=N)N)C(N)=O)C(C)C [Seq ID No. 11]
- half-life at 20 μM (DPP-IV; 20 μM peptide, 60 mU/2 ml DPP-IV, room temperature (22-24° C.), 20 mM Tris HCl pH 8.0, RP-HPLC, read-out: T1/2 in Hrs): > 24 h
- Percentage degradation in hrs (DPP-IV; DPP-IV, in 24 hrs): 20%
- half life against DPP-IV compared with parent GLP-1 molecules (DPP-IV; versus GLP-1(7-37) parent and GLP-1(7-36) parent): better half lives than the parent GLP-1 molecules

SMILES: CC[C@H](C)[C@H](NC(=O)[C@H](Cc1ccccc1)NC(=O)[C@H](CC(C)C)NC(=O)[C@H](CCCCN)NC(=O)[C@H](C)NC(=O)[C@H](C)NC(=O)[C@H](CCC(N)=O)NC(=O)CNC(=O)[C@H](CCC(=O)O)NC(=O)[C@H](CCC(N)=O)NC(=O)[C@H](Cc1ccc(O)cc1)NC(=O)[C@H](CO)NC(=O)[C@H](CC(C)C)NC(=O)[C@@H](NC(=O)[C@H](CC(=O)O)NC(=O)[C@H](CO)NC(=O)[C@@H](NC(=O)[C@H](Cc1ccccc1)NC(=O)[C@@H](NC(=O)CNC(=O)[C@H]1O[C@H](OC)[C@H](NC(=O)[C@@H](N)Cc2c[nH]cn2)[C@@H](O)[C@@H]1O)[C@@H](C)O)[C@@H](C)O)C(C)C)C(=O)N[C@@H](CCC(=O)O)C(=O)N[C@@H](Cc1c[nH]c2ccccc12)C(=O)N[C@@H](CC(C)C)C(=O)N[C@H](C(=O)N[C@@H](CCCCN)C(=O)NCC(=O)N[C@@H](CCCNC(=N)N)C(N)=O)C(C)C [Seq ID No. 12] (H-H[X1]GTFTSDVLSYQEGQAAKLFIEWLVKGR-NH2; N-terminus assumed)
- Percentage degradation in hrs (DPP-IV): 24.93%
- half-life at 20 μM (DPP-IV; pH 8): > 24 h
- half-life at 20 μM (NEP 24.11; 20 μM peptide, 1 mg/ml NEP 24.11, 37° C., 50 mM Hepes, 50 mM NaCl, pH 7.4, RP-HPLC, read-out: T1/2 (converted)): 27.5 h
- metabolised at 54 h, 20 μM (NEP 24.11; isolated NEP 24.11 enzyme (Calbiochem), pH 7.4, NEP 24.11, after 54 hrs, read-out: % Degradation (after 54 hrs)): 93.5%
